Article PMC6934184, “Selective DNA-PKcs inhibition extends the therapeutic index of localized radiotherapy and chemotherapy” (The Journal of Clinical Investigation, 2019)

Target: T1, EPHA4 (Homo sapiens, UniProt P54764)
T1 construct: purchased Thermo Fisher Scientific (Life Technologies) SelectScreen
Test: SelectScreen Z'LYTE
Format: biochemical
Outline: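 Percent values come from Thermo SelectScreen profiling of NU5455, combining activity and binding assays. CSF1R was run in Z'LYTE format at Km app ATP, and CAMK1 in Adapta format with ATP listed at 10.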

T1 sequence (P54764 20-986): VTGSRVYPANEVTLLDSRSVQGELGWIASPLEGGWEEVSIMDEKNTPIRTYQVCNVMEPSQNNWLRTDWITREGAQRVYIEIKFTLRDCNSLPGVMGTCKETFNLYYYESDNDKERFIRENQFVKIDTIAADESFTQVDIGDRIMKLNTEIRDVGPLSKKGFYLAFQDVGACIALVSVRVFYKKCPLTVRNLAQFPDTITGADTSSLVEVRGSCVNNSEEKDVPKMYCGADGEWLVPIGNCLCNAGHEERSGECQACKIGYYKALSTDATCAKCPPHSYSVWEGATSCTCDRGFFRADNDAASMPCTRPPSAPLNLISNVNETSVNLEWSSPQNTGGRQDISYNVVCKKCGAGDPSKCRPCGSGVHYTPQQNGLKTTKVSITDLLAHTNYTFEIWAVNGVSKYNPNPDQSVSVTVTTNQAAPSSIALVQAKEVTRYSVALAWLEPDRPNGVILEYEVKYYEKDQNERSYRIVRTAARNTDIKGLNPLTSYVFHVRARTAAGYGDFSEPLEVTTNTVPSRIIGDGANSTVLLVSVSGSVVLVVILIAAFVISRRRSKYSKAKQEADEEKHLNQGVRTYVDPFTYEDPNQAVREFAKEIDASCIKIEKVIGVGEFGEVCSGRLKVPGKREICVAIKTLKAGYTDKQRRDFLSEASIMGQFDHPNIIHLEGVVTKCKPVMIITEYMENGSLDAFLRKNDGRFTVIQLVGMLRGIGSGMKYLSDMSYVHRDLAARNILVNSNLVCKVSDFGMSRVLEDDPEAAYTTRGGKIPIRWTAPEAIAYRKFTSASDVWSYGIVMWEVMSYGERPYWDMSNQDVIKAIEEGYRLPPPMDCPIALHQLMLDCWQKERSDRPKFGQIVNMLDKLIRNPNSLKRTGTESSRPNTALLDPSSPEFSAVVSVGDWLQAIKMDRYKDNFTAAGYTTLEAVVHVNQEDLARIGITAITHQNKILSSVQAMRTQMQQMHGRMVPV

Q: How did the inhibition at 1 µM turn out when `CN(C(=O)CN1CCOCC1)c1ccc2sc3c(-c4cccc5c(=O)cc(N6CC7CCC(C6)O7)oc45)cccc3c2c1` [NU5455] was run?
A: 2.9%
